The record followed here is patent US6194173A, “Binding proteins for phosphoinositides, GRP1 or general receptor 1 for phophoinositide” (priority 1999, dated 2001).

In test [1] the target is T1, GSTPH(GRP) (Mus musculus, UniProt O08967).
T1 construct: residues 239 to 399 (PH domain); made in house; host or cells: bacteria
T1 sequence (O08967 239-399): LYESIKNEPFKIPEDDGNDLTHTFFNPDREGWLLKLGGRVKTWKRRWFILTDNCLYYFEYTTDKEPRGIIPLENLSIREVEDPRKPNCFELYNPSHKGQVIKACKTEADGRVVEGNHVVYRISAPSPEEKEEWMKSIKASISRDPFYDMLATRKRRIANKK
In words: Competition of [32P]PI(3,4,5)P3 binding to GST-PH by inositol phosphate head groups. Also noted: species or system murine. Particulars: for inhibition of [^32 P]PI(3,4,5)P3 binding to GST-PH(GRP): 100 μM competitor; for binding of inositol phosphate to GRP polypeptides: statement in the description. The text has this: (§1) To generate the GST fusion proteins, PCR reactions using the primers: […] (SEQ ID NO:9) and […] (SEQ ID NO:10) for the GST-N construct, […] (SEQ ID NO:11) and […] (SEQ ID NO:12) for the GST-Sec7 construct, […] (SEQ ID NO:13) and […] (SEQ ID NO:14) for the GSTPH construct, and […] (SEQ ID NO:15) and […] (SEQ ID NO:16) for the GSTGRP constructs. The sequences of the PCR products were verified, and cloned into pGEX-5X-3 in the EcoRI and Xba 1 sites. The bacteria were lysed and the fusion proteins were bound to gluthathione agarose according to standard procedures. Elution was effected by incubation of the beads with one volume 20 mM Hepes, 100 mM NaCl, 1 mM dithiotreitol (H buffer) supplemented with 10 mM gluthatione and 1% sodium cholate, and the eluate was dialyzed extensively against H buffer. For binding assays, protein was bound to nitrocellulose using a BIO-RAD BIO-DOT™ apparatus, using 150 pmol per well for binding assays and 7.5 pmol for competition assays. The nitrocellulose was washed in assay buffer, and 3 mm circles of the filters containing the protein were cut out and incubated in […] assay buffer with the relevant lipids and competitors for 2 h under constant agitation. The filters were washed four times with 1 mL assay buffer and counted in a scintillation counter.
The specificity of the GRP PH domain for binding [^32 P]PI(3,4,5,)P3 was also examined with respect to competition by the inositol phosphate head groups of the phosphoinositides. […] More specifically, 25,000 cpm of [^32 P]PI(3,4,5)P3 was incubated with varying concentrations of inositol 1 ,3,4,5P4 and bound radioactivity determined. The amount of radioactivity bound was calculated as percent of that bound in the absence of competitor. The values are means of quadruplicate measurements, and the error bars are standard deviations. The lack of inhibition by the latter two phosphoinositides is particularly striking since they carry the same charge as the inhibitor […] The concentration of inositol 1,3,4,5-P4 that inhibited binding of [^32 p]PI(3,4,5,)P3 half maximally was about 3-6 μM (FIG. 5A). Taken together, the data in FIGS. 4 and 5 indicate extraordinary specificity of the GRP PH domain for PI(3,4,5)P3. […] The binding to GST fusion proteins containing amino acids 462-569 of murine Sos or amino acid 13-115 of murine IRS-1 was assayed using 150 pmoles of protein bound to the filters. Competition of binding to 7.5 pmoles of GST-PH was measured in the presence of 100 μM of the competitors. The values were calculated as in (A), and are means of quadruplicate measurements and the error bars represent standard deviations.

The target of test [2] is T2, GRP (Mus musculus, UniProt O08967).
T2 construct: GST (N, cleaved yes); made in house; host or cells: GRP from pGEX-4T; ARF1 from baculovirus-infected Sf-9 cells
T2 sequence (O08967 1-399): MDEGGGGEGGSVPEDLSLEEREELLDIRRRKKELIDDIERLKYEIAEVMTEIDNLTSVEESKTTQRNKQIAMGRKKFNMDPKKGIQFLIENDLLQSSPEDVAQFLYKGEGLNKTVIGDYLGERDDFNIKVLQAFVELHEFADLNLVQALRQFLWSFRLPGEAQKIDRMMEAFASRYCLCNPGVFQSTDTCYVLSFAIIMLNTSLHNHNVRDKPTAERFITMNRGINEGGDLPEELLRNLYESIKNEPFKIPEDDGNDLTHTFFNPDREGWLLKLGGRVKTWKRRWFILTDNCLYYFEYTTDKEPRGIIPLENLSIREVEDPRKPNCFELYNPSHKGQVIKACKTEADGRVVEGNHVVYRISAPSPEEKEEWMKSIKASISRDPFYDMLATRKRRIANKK
Put plainly: Inhibition by inositol phosphates of PtdIns(3,4,5)P3-stimulated GRP-mediated ARF1 exchange. The format is biochemical. Conditions: 100 μM inositol phosphate, 0.05% cholate and 0.05% CHAPS.

Test [3] concerns ARF1. In words: ARF1 guanine nucleotide exchange ([35S]GTPγS binding). Conditions: [^35 S]GTPγS binding to immunoprecipitated ARF1. The format is biochemical. Background: GTPγS resists hydrolysis and so accumulates on activated G proteins.
Test [4] can be described thus: Binding of [32P]PI(3,4,5)P3 by GST fusion proteins spotted on nitrocellulose. Conditions: 150 pmol protein on nitrocellulose; relative to GST. How it is done:
The 3'-phosphatidylinositol probes labeled at the 3' position were generated using GST-p110 PI3-kinase purified from recombinant bacculovirus infected Sf 9 cells, using either purified phosphatidylinositol phosphates or crude brain lipid. Briefly, 20 mg phospholipid in chloroform was dried under N2 and resuspended in […] of buffer containing Tris-HCl pH 7.4, EDTA 1 mM and incubated in […] phopsphorylation media containing 20 mM Tris-HCl pH 7.4, 100 mM NaCl, 10 mM MgCl2, 0.5 mM EGTA. 0.2 mM adenosine, GST-p110 and 5-10 mCi [g-^32 P]ATP (5 Ci/umol). The reaction was carried out for 2 h at room temperature, quenched by addition of 0.2 ml of 1M HCl, followed by 0.5 ml of chloroform:methanol (1:1). The organic phase containing phospholipids was washed 4 times with 0.4 ml of methanol:HCl (1: 1) and stored at -70° C. until use. Just before use, the lipid was dried under a stream of nitrogen with phosphatidyl serine corresponding to a final concentration of 20 mg/ml. The identities of the PI3-P, PI3,4-P2 and PI3,4,5-P3 were confirmed by TLC and HPLC analysis.
as §1
In order to determine whether PI(3,4,5)P3 binding could be localized to specific sequences within the GRP structure, GST fusion proteins containing either residues 239 to 399 (PH domain), residues 52 to 260 (Sec7 domain), or residues 5 to 71, full length GRP residues 5-399 were expressed in bacteria and purified on glutathione-conjugated beads. […] 150 pmol of the proteins were spotted on nitrocellulose filters, incubated with [^32 P]PI(3,4,5)P3 and the amount of bound lipid was determined as described. The values are the means of the quadruplicate determinations, and the error bars are the standard deviations. […] Nitrocellulose filters with GST-PH were incubated with 25,000 cpm of each of the phospholipids and the amount of bound lipid determined as described above. The values are the means of quadruplicate determinations and the error bars are the standard deviations. […] Although previous work has shown that PH domain from PLCδ (Lemmon et al. (1995) supra) and various other proteins bind 4,5-polyphosphoinositide, none have been reported to preferentially associate with a 3-polyphosphoinositide. […]

For `O=P(O)(O)O[C@H]1[C@H](OP(=O)(O)O)[C@@H](OP(=O)(O)O)[C@H](O)[C@@H](O)[C@H]1OP(=O)(O)O` (relative stereo) [Ins(1,2,5,6)P4, inositol 1,2,5,6-P4], in test [1], the “inhibition of [^32 P]PI(3,4,5)P3 binding to GST-PH(GRP)” value is given as “little or no effect” and the “binding of inositol phosphate to GRP polypeptides” value (shortened to “binding of inositol phosphate”) was “not”. Also, the “inhibition of PtdIns(3,4,5)P3-stimulated GRP-mediated ARF1 guanine nucleotide exchange” value in test [2] is given as “failed to inhibit”.

For the molecule `O=P(O)(O)O[C@H]1[C@H](O)[C@@H](O)[C@H](OP(=O)(O)O)[C@@H](OP(=O)(O)O)[C@H]1O` [Ins(1,3,4)P3], the “inhibition of PtdIns(3,4,5)P3-stimulated GRP-mediated ARF1 guanine nucleotide exchange” value in test [2] was “failed to inhibit”.

In the case of `O=P(O)(O)O[C@H]1[C@H](O)[C@@H](OP(=O)(O)O)[C@H](OP(=O)(O)O)[C@@H](OP(=O)(O)O)[C@H]1O` [Ins(1,3,4,5)P4, inositol 1,3,4,5-P4], in test [1], the “inhibition of [^32 P]PI(3,4,5)P3 binding to GST-PH(GRP)” value was “markedly inhibited” and the “binding of inositol phosphate” value is recorded as “bind”. For the same molecule, the IC50 in test [1] (25,000 cpm [^32 P]PI(3,4,5)P3, GST-PH, read-out: concentration that inhibited binding of [^32 p]PI(3,4,5)P3 half maximally) was in the range of 3 to 6 µM. Besides, the “inhibition of PtdIns(3,4,5)P3-stimulated GRP-mediated ARF1 guanine nucleotide exchange” value in test [2] was “virtually ablated”. Further, the “inhibition of PtdIns(3,4,5)P3-stimulated GRP-mediated ARF1 guanine nucleotide exchange” value in test [2] (listed as Ins(1,3,4,5) tetrakisphosphate) is reported as “selectively blocked”.

In the case of `O=P(O)(O)O[C@@H]1[C@@H](O)[C@H](OP(=O)(O)O)[C@@H](OP(=O)(O)O)[C@@H](O)[C@H]1OP(=O)(O)O` [Ins(1,3,4,6)P4, inositol 1,3,4,6-P4], in test [1], the “inhibition of [^32 P]PI(3,4,5)P3 binding to GST-PH(GRP)” value is reported as “little or no effect” and the “binding of inositol phosphate” value is recorded as “not”. In addition, in test [2], the “inhibition of PtdIns(3,4,5)P3-stimulated GRP-mediated ARF1 guanine nucleotide exchange” value is on record as “failed to inhibit”.

B1: N-terminus of GRP: GST fusion protein containing residues 5 to 71 (protein, UniProt O08967 5-71, looked up, fragment)
chain: GGGEGGSVPEDLSLEEREELLDIRRRKKELIDDIERLKYEIAEVMTEIDNLTSVEESKTTQRNKQIA
modifications: GST fusion
Regarding B1, the “ARF1 guanine nucleotide exchange” value in test [3] was “no effect”. The “binding of [^32 P]PI(3,4,5)P3 by GST fusion protein” value (shortened to “binding of [^32 P]PI(3,4,5)P3”) in test [4] is recorded as “No significant binding”.

B2: GRP PH domain: GST fusion protein containing residues 239 to 399 (PH domain) (protein)
chain: T1 sequence (O08967 239-399)
modifications: GST fusion partner
For B2, the “ARF1 guanine nucleotide exchange” value in test [3] is recorded as “no effect”. Further, in test [4], the “binding of [^32 P]PI(3,4,5)P3” value is recorded as “extensive binding”.

B3: IRS-1PH domain: GST fusion protein containing amino acid 13-115 of murine IRS-1 (protein, UniProt P35569 13-115, looked up, fragment)
chain: VRKVGYLRKPKSMHKRFFVLRAASEAGGPARLEYYENEKKWRHKSSAPKRSIPLESCFNINKRADSKNKHLVALYTRDEHFAIAADSEAEQDSWYQALLQLHN
modifications: PH domain GST fusion
As to B3, the “binding of [^32 P]PI(3,4,5)P3” value in test [4] was “negligible”.

B4: GRP Sec7 domain: GST fusion protein containing residues 52 to 260 (Sec7 domain) (protein, UniProt O08967 52-260, looked up, fragment)
chain: IDNLTSVEESKTTQRNKQIAMGRKKFNMDPKKGIQFLIENDLLQSSPEDVAQFLYKGEGLNKTVIGDYLGERDDFNIKVLQAFVELHEFADLNLVQALRQFLWSFRLPGEAQKIDRMMEAFASRYCLCNPGVFQSTDTCYVLSFAIIMLNTSLHNHNVRDKPTAERFITMNRGINEGGDLPEELLRNLYESIKNEPFKIPEDDGNDLTH
modifications: Sec7 domain GST fusion
With B4, the entries for the “ARF1 guanine nucleotide exchange” value in test [3], in test [3] (listed as SEC7 homology domain) and in test [3] (listed as Sec 7 domains of GRP) were “high activity”, “as effective as the fill length GRP” and “sufficient for catalysis”, respectively. Besides, the “binding of [^32 P]PI(3,4,5)P3” value in test [4] is “No significant binding”.
